According to patent publication US20140309210A1, “INDAZOLE COMPOUNDS, COMPOSITIONS AND METHODS OF USE THEREOF” (Genentech, Inc., priority 2011, published 2014):
pKi: −log10 of the molar value.

Target: T1, purified ITK (Invitrogen PV3875) (Homo sapiens, UniProt Q08881)
T1 construct: purchased Invitrogen PV3875
T1 sequence (Q08881 1-620): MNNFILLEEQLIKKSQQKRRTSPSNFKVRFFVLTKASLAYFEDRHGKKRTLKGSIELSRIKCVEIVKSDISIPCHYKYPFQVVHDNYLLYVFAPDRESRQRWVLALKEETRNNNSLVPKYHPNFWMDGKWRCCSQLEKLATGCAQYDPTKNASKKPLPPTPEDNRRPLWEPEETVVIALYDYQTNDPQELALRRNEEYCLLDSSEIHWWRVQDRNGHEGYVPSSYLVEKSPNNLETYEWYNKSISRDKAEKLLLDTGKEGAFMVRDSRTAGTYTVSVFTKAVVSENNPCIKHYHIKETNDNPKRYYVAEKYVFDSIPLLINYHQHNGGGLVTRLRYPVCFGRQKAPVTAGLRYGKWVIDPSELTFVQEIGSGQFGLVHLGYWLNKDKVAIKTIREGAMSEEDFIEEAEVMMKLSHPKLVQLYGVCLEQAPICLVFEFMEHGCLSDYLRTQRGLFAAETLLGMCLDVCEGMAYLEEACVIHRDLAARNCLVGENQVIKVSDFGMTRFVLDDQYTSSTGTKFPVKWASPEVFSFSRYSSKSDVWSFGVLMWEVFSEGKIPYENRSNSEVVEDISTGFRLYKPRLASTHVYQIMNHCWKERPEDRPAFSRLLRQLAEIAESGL
Assay: ITK peptide phosphorylation assay (Caliper LabChip or LCMS)
Assay type: biochemical
Conditions: Table 1, Examples 141-279
Method in brief: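 Purified human ITK peptide phosphorylation, quenched with EDTA (50 mM final) for Caliper LabChip separation or TCA (5% v/v final) for UPLC-MS/MS MRM quantification. Ki derived via Morrison tight-binding equation, corrected for competitive inhibition using ATP concentration relative to Km,app.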

SMILES | pKi
N#Cc1cccc(Cn2cc(NC(=O)c3n[nH]c4cc(-c5cncnc5)ccc34)cn2)c1 [Example 164, N-[1-[(3-cyanophenyl)meth-yl]pyrazol-4-yl]-6-pyrimidin-5-yl-1H-indazole-3-carboxamide] | 7.77
CN1CC=C(c2ccc3c(C(=O)Nc4cnn(Cc5cccc(C#N)c5)c4)n[nH]c3c2)CC1 [Example 165, N-[1-[(3-cyanophenyl)meth-yl]pyrazol-4-yl]-6-(1-methyl-3,6-dihydro-2H-pyridin-4-yl)-1H-indazole-3-carboxamide] | 6.18
COc1cncc(-c2ccc3c(C(=O)Nc4cnn(Cc5cccc(C#N)c5)c4)n[nH]c3c2)c1 [Example 166, N-[1-[(3-cyanophenyl)meth-yl]pyrazol-4-yl]-6-(5-methoxy-3-pyridyl)-1H-indazole-3-carboxamide] | 8.11
O=C(Nc1cn[nH]c1)c1n[nH]c2cc(-c3cn[nH]c3)ccc12 [Example 168, N,6-bis(1H-pyrazol-4-yl)-1H-indazole-3-carboxamide] | 7.67
CC(C)(O)Cn1cc(NC(=O)c2n[nH]c3cc(-c4cn[nH]c4)ccc23)cn1 [Example 170, N-[1-(2-hydroxy-2-methyl-propyl)pyrazol-4-yl]-6-(1H-pyrazol-4-yl)-1H indazole-3-carboxamide] | 8.06
CCN(CC)CCn1cc(NC(=O)c2n[nH]c3cc(-c4cn[nH]c4)ccc23)cn1 [Example 171, N-[1-[2-(diethylamino)eth-yl]pyrazol-4-yl]-6-(1H-pyrazol-4-yl)-1H-indazole-3-carboxamide] | 8.10
CN1CCC(Nc2ccc3c(C(=O)Nc4cnn(Cc5cccc(C#N)c5)c4)n[nH]c3c2)C1 (stereo not shown) [Example 172, N-[1-[(3-cyanophenyl)meth-yl]pyrazol-4-yl]-6-[(1-methylpyrrolidin-3-yl)amino]-1H-indazole-3-carboxamide] | 5.85
N#Cc1cccc(Cn2cc(NC(=O)c3n[nH]c4cc(NC5CCNCC5)ccc34)cn2)c1 [Example 173, N-[1-[(3-cyanophenyl)meth-yl]pyrazol-4-yl]-6-(4-piperidylamino)-1H-indazole-3-carboxamide] | 5.92
CN1CCN(c2ccc3c(C(=O)Nc4cnn(Cc5cccc(C#N)c5)c4)n[nH]c3c2)CC1 [Example 176, N-[1-[(3-cyanophenyl)meth-yl]pyrazol-4-yl]-6-(4-methylpiperazin-1-yl)-1H-indazole-3-carboxamide] | 6.43
N#Cc1cccc(Cn2cc(NC(=O)c3n[nH]c4cc(C5CCNCC5)ccc34)cn2)c1 [Example 179, N-[1-[(3-cyanophenyl)meth-yl]pyrazol-4-yl]-6-(4-piperidyl)-1H-indazole-3-carboxamide] | 6.81
N#Cc1cccc(Cn2cc(NC(=O)c3n[nH]c4cc(C5CNC5)ccc34)cn2)c1 [Example 182, 6-(azetidin-3-yl)-N-[1-[(3-cyanophenyl)meth-yl]pyrazol-4-yl]-1H-indazole-3-carboxamide] | 6.62
O=C(Nc1cnn(C2CCOc3ccccc32)c1)c1n[nH]c2cc(-c3cn[nH]c3)ccc12 (stereo not shown) [Example 185, N-(1-chroman-4-ylpyrazol-4-yl)-6-(1H-pyrazol-4-yl)-1H-indazole-3-carboxamide] | 6.12
CC(CO)c1ccc2[nH]nc(C(=O)Nc3cnn(Cc4cccc(C#N)c4)c3)c2c1 (stereo not shown) [Example 186, N-[1-[(3-cyanophenyl)meth-yl]pyrazol-4-yl]-5-(2-hydroxy-1-methyl-ethyl)-1H-indazole-3-carboxamide] | 7.66
CC(CO)c1ccc2[nH]nc(C(=O)Nc3cnn(Cc4cccc(C#N)c4)c3)c2c1 (stereo not shown) [Example 187, N-[1-[(3-cyanophenyl)meth-yl]pyrazol-4-yl]-5-(2-hydroxy-1-methyl-ethyl)-1H-indazole-3-carboxamide] | 8.11
CN1CCC(c2ccc3c(C(=O)Nc4cnn(Cc5cccc(C#N)c5)c4)n[nH]c3c2)C1 (stereo not shown) [Example 188, N-[1-[(3-cyanophenyl)meth-yl]pyrazol-4-yl]-6-(1-methylpyrrolidin-3-yl)-1H-indazole-3-carboxamide] | 5.80
CNc1cncc(-c2ccc3c(C(=O)Nc4cnn(Cc5ccccc5)c4)n[nH]c3c2)n1 [Example 189, N-(1-benzylpyrazol-4-yl)-6-[6-(methylamino)py-razin-2-yl]-1H-indazole-3-carboxamide] | 7.61
CNc1ncc(-c2ccc3c(C(=O)Nc4cnn(Cc5ccccc5)c4)n[nH]c3c2)s1 [Example 190, N-(1-benzylpyrazol-4-yl)-6-[2-(methylamino)thi-azol-5-yl]-1H-indazole-3-carboxamide] | 7.73
CN1CC(c2ccc3c(C(=O)Nc4cnn(Cc5cccc(C#N)c5)c4)n[nH]c3c2)C1 [Example 191, N-[1-[(3-cyanophenyl)meth-yl]pyrazol-4-yl]-6-(1-methylazetidin-3-yl)-1H-indazole-3-carboxamide] | 5.62
CC(C)n1cc(NC(=O)c2n[nH]c3cc(-c4cn[nH]c4)ccc23)cn1 [Example 192, N-(1-isopropylpyrazol-4-yl)-6-(1H-pyrazol-4-yl)-1H-indazole-3-carboxamide] | 7.99
N#Cc1cccc(Cn2cc(NC(=O)c3n[nH]c4ccc(C5(CO)CC5)cc34)cn2)c1 [Example 193, N-[1-[(3-cyanophenyl)meth-yl]pyrazol-4-yl]-5-[1-(hydroxymeth-yl)cyclopropyl]-1H-indazole-3-carboxamide] | 7.58
N#Cc1cccc(Cn2cc(NC(=O)c3n[nH]c4ccc(NC5CCOCC5)cc34)cn2)c1 [Example 194, N-[1-[(3-cyanophenyl)meth-yl]pyrazol-4-yl]-5-(tetrahydropyran-4-ylamino)-1H-indazole-3-carboxamide] | 6.97
N#Cc1cccc(Cn2cc(NC(=O)c3n[nH]c4ccc(NC5CCCCC5)cc34)cn2)c1 [Example 195, N-[1-[(3-cyanophenyl)meth-yl]pyrazol-4-yl]-5-(cyclohexylamino)-1H-indazole-3-carboxamide] | 7.37
Cn1nccc1-c1ccc2c(C(=O)Nc3cnn(Cc4cccc(C#N)c4)c3)n[nH]c2c1 [Example 196, N-[1-[(3-cyanophenyl)meth-yl]pyrazol-4-yl]-6-(2-methylpyrazol-3-yl)-1H-indazole-3-carboxamide] | 6.45

Further compounds by rising pKi, results first:

pKi | SMILES
8.11 | O=C(Nc1cnn(Cc2c[nH]cn2)c1)c1n[nH]c2cc(-c3cn[nH]c3)ccc12 [Example 167, N-[1-(1H-imidazol-4-ylmethyl)pyrazol-4-yl]-6-(1H-pyrazol-4-yl)-1H-indazole-3-carboxamide]
8.12 | O=C(Nc1cnn(CCC2CCCCC2)c1)c1n[nH]c2cc(-c3cn[nH]c3)ccc12 [Example 169, N-[1-(2-cyclohexylethyl)py-razol-4-yl]-6-(1H-pyrazol-4-yl)-1H-indazole-3-carboxamide]
8.12 | N#Cc1cccc(Cn2cc(NC(=O)c3n[nH]c4ccc(NC5CCNC5)cc34)cn2)c1 (stereo not shown) [Example 183, N-[1-[(3-cyanophenyl)meth-yl]pyrazol-4-yl]-5-(pyrrolidin-3-ylamino)-1H-indazole-3-carboxamide]
8.12 | O=C(Nc1cnn([C@@H](CO)c2cscn2)c1)c1n[nH]c2cc(-c3cn[nH]c3)ccc12 [Example 177, N-[1-[(1R)-2-hydroxy-1-thiazol-4-yl-ethyl]pyrazol-4-yl]-6-(1H-pyrazol-4-yl)-1H-indazole-3-carboxamide]
8.21 | O=C(Nc1cnn([C@H](CO)c2cscn2)c1)c1n[nH]c2cc(-c3cn[nH]c3)ccc12 [Example 178, N-[1-[(1S)-2-hydroxy-1-thiazol-4-yl-ethyl]pyrazol-4-yl]-6-(1H-pyrazol-4-yl)-1H-indazole-3-carboxamide]
8.57 | N#Cc1cccc(Cn2cc(NC(=O)c3n[nH]c4ccc(NC5CCNCC5)cc34)cn2)c1 [Example 180, N-[1-[(3-cyanophenyl)methyl]pyrazol-4-yl]-5-(4-piperidylamino)-1H-indazole-3-carboxamide]
8.69 | N#Cc1cccc(Cn2cc(NC(=O)c3n[nH]c4cc(-c5cnco5)ccc34)cn2)c1 [Example 197, N-[1-[(3-cyanophenyl)meth-yl]pyrazol-4-yl]-6-oxazol-5-yl-1H-indazole-3-carboxamide]
8.85 | CC[C@H](c1cscn1)n1cc(NC(=O)c2n[nH]c3cc(-c4cn[nH]c4)ccc23)cn1 [Example 174, 6-(1H-pyrazol-4-yl)-N-[1-[(1R)-1-thiazol-4-ylpropyl]pyrazol-4-yl]-1H-indazole-3-carboxamide]
8.88 | CN1CCC(Nc2ccc3[nH]nc(C(=O)Nc4cnn(Cc5cccc(C#N)c5)c4)c3c2)CC1 [Example 184, N-[1-[(3-cyanophenyl)meth-yl]pyrazol-4-yl]-5-[(1-methyl-4-piperidyl)amino]-1H-indazole-3-carboxamide]
8.97 | O=C(Nc1cnn(Cc2ccccc2)c1)c1n[nH]c2cc(-c3cn[nH]c3)ccc12 [Example 181, N-(1-benzylpyrazol-4-yl)-6-(1H-pyrazol-4-yl)-1H-indazole-3-carboxamide]
9.15 | CC[C@@H](c1cscn1)n1cc(NC(=O)c2n[nH]c3cc(-c4cn[nH]c4)ccc23)cn1 [Example 175, 6-(1H-pyrazol-4-yl)-N-[1-[(1S)-1-thiazol-4-ylpropyl]pyrazol-4-yl]-1H-indazole-3-carboxamide]
